In patent US20030170250A1, “Local delivery of long lasting therapeutic agents” (priority 1998, published 2003):

System: carotid artery
Experiment: In vivo addition of NHS-Rhodamine: local incubation in isolated carotid artery chamber, fluorescence of the artery
Parameters: species or system New Zealand rabbits
Details: 100 μl of 500 μM, 3 minutes incubation in 1-cm chamber, washed with 0.9% sodium chloride
Description: Both carotid arteries were isolated and blood flows were measured. A catheter (22G) was inserted in the arterial segment and rinsed with 0.9% sodium chloride via catheter until there was no more visible evidence of blood in the segment.
A 1-cm incubation chamber was created by ligatures in the segment area. The incubation chamber was flushed three times with 1 mL of 0.9% sodium chloride. A solution of 100 μl of 500 μM NHS-Rhodamine was prepared and incubated in the incubation chamber for 3 minutes. The excess of rhodamine was withdrawn with a 1 mL syringue. The incubation chamber was washed once again with 3 times […] of 0.9% sodium chloride. The incubation chamber was then removed from the rabbit, cut in three pieces and dipped in 10% formalin for further evaluation.

| Substance | fluorescence of treated arteries |
| --- | --- |
| Rhodamine | little fluorescence over background |
| Rhodamine Green™-X, succinimidyl ester, hydrochloride mixed isomers [NHS-Rhodamine] | dramatic levels of fluorescence |
